According to patent US10815276B2, “Cell penetrating peptides and methods of making and using thereof” (Entrada Therapeutics, Inc., priority 2014, dated 2020):
Like-named read-outs stand apart in the source and are kept apart here. Starred links: 1 amine or outer side, 2 acyl side, 3 side chain; linkers in the order of their positions; H or OH if unused. Positions of bridges follow the written chain, without caps; N, C: chain ends. Non-standard residues stand in square brackets, D forms with d. Residues, ends and D or L forms follow the SMILES beside them. *: point of attachment. Lys(5-FITC)NH2 = NC(=O)[C@H](CCCCNC(=S)Nc1ccc2c(c1)C(=O)OC21c2ccc(O)cc2Oc2cc(O)ccc21)N*; Trimesoyl = O=C(c1cc(C(=O)[*:2])cc(C(=O)[*:3])c1)[*:1]; Phe(4-Cl) = N[C@@H](Cc1ccc(Cl)cc1)C(=O)O; Phe(4-F) = N[C@@H](Cc1ccc(F)cc1)C(=O)O; 2Nal = N[C@@H](Cc1ccc2ccccc2c1)C(=O)O; Pip = O=C(O)[C@@H]1CCCCN1; Dap = NC[C@H](N)C(=O)O; βAla = NCCC(=O)O; Sar = CNCC(=O)O

Legend:
[1] = tested on: cell type (e.g., HeLa cells); experiment: Cellular uptake efficiency of cyclic CPPs; format: cell-based; settings: relative to cFΦR4 (290-1F, 100%)
Experimental: In particular embodiments, uptake efficiency is determined by comparing (i) the amount of a cyclic cell-penetrating peptide of the invention internalized by a cell type (e.g., HeLa cells) to (ii) the amount of c(FΦRRRRQ) (290-1F) internalized by the same cell type. To measure cellular uptake efficiency, the cell type may be incubated in the presence of a cell-penetrating peptide of the invention for a specified period of time (e.g., 30 minutes, 1 hour, 2 hours, etc.) after which the amount of the cell-penetrating peptide internalized by the cell is quantified. Separately, the same concentration of c(FΦRRRRQ) (290-1F) is incubated in the presence of the cell type over the same period of time, and the amount of the second peptide internalized by the cell is quantified. Quantification can be achieved by fluorescently labeling the cell-penetrating peptide (e.g., with a FTIC dye) and measuring the fluorescence intensity using techniques well-known in the art.
(§1) Also discussed herein are the CPP sequences in Table 16. All uptake/delivery efficiencies are in Table 17 are relative to that of cFΦR4 (290-1F, 100%). SUV1 are small unilamellar vesicles that mimic the neutral outer membrane of mammalian cells [45% phosphatidylcholine (PC), 20% phosphatidylethanolamine (PE), 20% sphingomyelin (SM), and 15% cholesterol (CHO)]. SUV2 are small unilamellar vesicles that mimic the negatively charged endosomal membrane of mammalian cells [50% PC, 20% PE, 10% phosphatidylinositol (PI), and 20% bis(monoacylglycerol)phosphate].

[2] = tested on: SUV2 (vesicles that mimic the negatively charged endosomal membrane of mammalian cells); experiment: Fluorescence polarization membrane binding, SUV2
Excerpt: as §1
(§2) Measurements were carried out fluorescence polarization using FITC-labeled cyclic peptides against increasing concentrations of vesicles. Experiments were performed at pH 7.4 and 5.5 (pH inside late endosomes).

[3] = tested on: SUV1 (vesicles that mimic the neutral outer membrane of mammalian cells); experiment: Fluorescence polarization membrane binding, SUV1; settings: pH 7.4; read-out: Membrane Binding KD (mM) SUV1 pH 7.4
Excerpt: as §1, §2

Pin1 = molecular target: T1, Pin1 (Homo sapiens, UniProt Q13526, S16A/Y23A); experiment: Pin1 binding by FA (FITC-labeled peptides); settings: FITC-labeled peptide, FA; read-out: KD
T1 construct: The full-length human S16A/Y23A mutant Pin1 was expressed and purified from E. coli; made in house

[4] = pH 5.5, read-out: Membrane Binding KD (mM) SUV2 pH 5.5
[5] = pH 7.4, read-out: Membrane Binding KD (mM) SUV2 pH 7.4

Molecule	Kd (Pin1) [µM]	also measured
N=C(N)NCCC[C@@H]1NC(=O)[C@H](Cc2ccccc2)NC(=O)[C@H](CCCNC(=N)N)NC(=O)[C@@H](CCCNC(=N)N)NC(=O)[C@H](CCC(=O)N[C@@H](CCCCNC(=S)Nc2ccc3c(c2)C(=O)OC32c3ccc(O)cc3Oc3cc(O)ccc32)C(N)=O)NC(=O)[C@H](CCCNC(=N)N)NC(=O)[C@H](Cc2ccc3ccccc3c2)NC1=O [Peptide 290-10F, c(rRFRΦRQ)] (cyclo([dR]RFR[2Nal]RE(Lys(5-FITC)NH2)))		Uptake Efficiency (%) [1]: 52%; Kd [2, 4]: 0.17 mM; Kd [2, 5]: 0.87 mM; Kd [3]: 1.2 mM
N=C(N)NCCC[C@@H]1NC(=O)[C@H](Cc2ccc3ccccc3c2)NC(=O)[C@@H](Cc2ccccc2)NC(=O)[C@H](CCC(=O)N[C@@H](CCCCNC(=S)Nc2ccc3c(c2)C(=O)OC32c3ccc(O)cc3Oc3cc(O)ccc32)C(N)=O)NC(=O)[C@H](CCCNC(=N)N)NC(=O)[C@@H](CCCNC(=N)N)NC(=O)[C@H](CCCNC(=N)N)NC(=O)[C@@H](CCCNC(=N)N)NC1=O [Peptide 290-11F, c(fΦRrRrRQ)] (cyclo([2Nal]R[dR]R[dR]RE(Lys(5-FITC)NH2)[dF]))		Uptake Efficiency (%) [1]: 542%; Kd [2, 4]: 0.019 mM; Kd [2, 5]: 0.092 mM; Kd [3]: 2.7 mM
C[C@@H]1NC(=O)[C@H](CCCNC(=N)N)NC(=O)[C@H](Cc2ccc3ccccc3c2)NC(=O)[C@@H]2CCCCN2C(=O)[C@@H](CC(=O)O)NC(=O)CN(C)C(=O)[C@@H]2CCCN2C(=O)c2cc3cc(c2)C(=O)NC[C@@H](C(=O)N[C@@H](CCCCN)C(N)=O)NC(=O)[C@H](CCCNC(=N)N)NC(=O)[C@H](CCCNC(=N)N)NC(=O)[C@H](CCCNC(=N)N)NC(=O)[C@H](CCCNC(=N)N)NC(=O)[C@H](Cc2ccc4ccccc4c2)NC(=O)[C@H](Cc2ccccc2)NC(=O)[C@H](CNC3=O)NC(=O)CCNC1=O [Peptide 13, bicyclo[Tm-(Pro-Sar-D-Asp-Pip-Nal-Arg-Ala-β-Ala)-Dap-(Phe-Nal-Arg-Arg-Arg-Arg-Dap)]-Lys] (P[Sar][dD][Pip][2Nal]RA[βAla][Dap]F[2Nal]RRRR[Dap]K-NH2; linker N-9-16 via Trimesoyl; C-terminus assumed)	2.08 ± 0.31	
C[C@H]1NC(=O)CCNC(=O)[C@H](CCCNC(=N)N)NC(=O)[C@H](Cc2ccc3ccccc3c2)NC(=O)[C@@H]2CCCCN2C(=O)[C@@H](CC(=O)O)NC(=O)CN(C)C(=O)[C@@H]2CCCN2C(=O)c2cc3cc(c2)C(=O)NC[C@H](NC1=O)C(=O)N[C@@H](Cc1ccccc1)C(=O)N[C@@H](Cc1ccc2ccccc2c1)C(=O)N[C@@H](CCCNC(=N)N)C(=O)N[C@@H](CCCNC(=N)N)C(=O)N[C@@H](CCCNC(=N)N)C(=O)N[C@@H](CCCNC(=N)N)C(=O)N[C@H](C(=O)N[C@@H](CCCCN)C(N)=O)CNC3=O [Peptide 14, bicyclo[Tm-(Pro-Sar-D-Asp-Pip-Nal-Arg-β-Ala-D-Ala)-Dap-(Phe-Nal-Arg-Arg-Arg-Arg-Dap)]-Lys] (P[Sar][dD][Pip][2Nal]R[βAla][dA][Dap]F[2Nal]RRRR[Dap]K-NH2; linker N-9-16 via Trimesoyl; C-terminus assumed)	1.75 ± 0.18	
C[C@H](O)[C@H]1NC(=O)[C@H](Cc2ccc(F)cc2)NC(=O)[C@@H](Cc2ccccc2)NC(=O)c2cc3cc(c2)C(=O)NC[C@H](NC(=O)[C@H](CCCNC(=N)N)NC(=O)[C@H](Cc2ccc4ccccc4c2)NC(=O)[C@@H]2CCCCN2C1=O)C(=O)N[C@@H](Cc1ccccc1)C(=O)N[C@@H](Cc1ccc2ccccc2c1)C(=O)N[C@@H](CCCNC(=N)N)C(=O)N[C@@H](CCCNC(=N)N)C(=O)N[C@@H](CCCNC(=N)N)C(=O)N[C@@H](CCCNC(=N)N)C(=O)N[C@H](C(=O)N[C@@H](CCCCN)C(N)=O)CNC3=O [Peptide 12, bicyclo[Tm-(D-Phe-Fpa-D-Thr-Pip-Nal-Arg)-Dap-(Phe-Nal-Arg-Arg-Arg-Arg-Dap)]-Lys] ([dF][Phe(4-F)][dT][Pip][2Nal]R[Dap]F[2Nal]RRRR[Dap]K-NH2; linker N-7-14 via Trimesoyl; C-terminus assumed)	2.36 ± 0.48	

The next lines start with results.

Kd (Pin1) [µM]	Molecule	also measured
1.31 ± 0.1	CN1CC(=O)N[C@H](CC(=O)O)C(=O)N2CCCC[C@H]2C(=O)N[C@@H](Cc2ccc3ccccc3c2)C(=O)N[C@@H](CCCNC(=N)N)C(=O)N[C@@H](CCCNC(=N)N)C(=O)N[C@H](CCCNC(=N)N)C(=O)N[C@H]2CNC(=O)c3cc(cc(c3)C(=O)N3CCC[C@H]3C1=O)C(=O)NC[C@@H](C(=O)N[C@@H](CCCCN)C(N)=O)NC(=O)[C@H](CCCNC(=N)N)NC(=O)[C@H](CCCNC(=N)N)NC(=O)[C@H](CCCNC(=N)N)NC(=O)[C@H](CCCNC(=N)N)NC(=O)[C@H](Cc1ccc3ccccc3c1)NC(=O)[C@H](Cc1ccccc1)NC2=O [Peptide 24, bicyclo[Tm-(Pro-Sar-D-Asp-Pip-Nal-Arg-Arg-D-Arg)-Dap-(Phe-Nal-Arg-Arg-Arg-Arg-Dap)]-Lys] (P[Sar][dD][Pip][2Nal]RR[dR][Dap]F[2Nal]RRRR[Dap]K-NH2; linker N-9-16 via Trimesoyl; C-terminus assumed)	
1.38 ± 0.16	C[C@@H]1NC(=O)[C@H](CCCNC(=N)N)NC(=O)[C@H](Cc2ccc3ccccc3c2)NC(=O)[C@@H]2CCCCN2C(=O)[C@@H]([C@H](C)O)NC(=O)[C@H](Cc2ccc(F)cc2)NC(=O)[C@@H](Cc2ccccc2)NC(=O)c2cc3cc(c2)C(=O)NC[C@H](NC(=O)[C@@H](Cc2ccccc2)NC1=O)C(=O)N[C@@H](CCCNC(=N)N)C(=O)N[C@@H](CCCNC(=N)N)C(=O)N[C@@H](Cc1ccc2ccccc2c1)C(=O)N[C@@H](Cc1ccccc1)C(=O)N[C@@H](CCCNC(=N)N)C(=O)N[C@@H](CCCNC(=N)N)C(=O)N[C@H](C(=O)N[C@@H](CCCCN)C(N)=O)CNC3=O [Peptide 43, bicyclo[Tm-(D-Phe-Fpa-D-Thr-Pip-Nal-Arg-Ala-D-Phe)-Dap-(Arg-Arg-Nal-Phe-Arg-Arg-Dap)]-Lys] ([dF][Phe(4-F)][dT][Pip][2Nal]RA[dF][Dap]RR[2Nal]FRR[Dap]K-NH2; linker N-9-16 via Trimesoyl; C-terminus assumed)	
0.46 ± 0.17	bicyclo[Tm-(D-4-Phe-Fpa-D-Ile-Pip-Nal-Arg-Ala-D-Phe)-Dap-(Phe-Nal-Arg-Arg-Arg-Arg-Dap)]-Lys [Peptide 39]	
1.68 ± 0.17	C[C@@H]1NC(=O)[C@H](CCCNC(=N)N)NC(=O)[C@H](Cc2ccc3ccccc3c2)NC(=O)[C@@H]2CCCCN2C(=O)[C@@H]([C@H](C)O)NC(=O)[C@H](Cc2c[nH]cn2)NC(=O)[C@@H](Cc2ccccc2)NC(=O)c2cc3cc(c2)C(=O)NC[C@H](NC(=O)[C@@H](Cc2ccccc2)NC1=O)C(=O)N[C@@H](Cc1ccccc1)C(=O)N[C@@H](Cc1ccc2ccccc2c1)C(=O)N[C@@H](CCCNC(=N)N)C(=O)N[C@@H](CCCNC(=N)N)C(=O)N[C@@H](CCCNC(=N)N)C(=O)N[C@@H](CCCNC(=N)N)C(=O)N[C@H](C(=O)N[C@@H](CCCCN)C(N)=O)CNC3=O [Peptide 31, bicyclo[Tm-(D-Phe-His-D-Thr-Pip-Nal-Arg-Ala-D-Phe)-Dap-(Phe-Nal-Arg-Arg-Arg-Arg-Dap)]-Lys] ([dF]H[dT][Pip][2Nal]RA[dF][Dap]F[2Nal]RRRR[Dap]K-NH2; linker N-9-16 via Trimesoyl; C-terminus assumed)	
1.75 ± 0.24	CC(C)[C@@H]1NC(=O)[C@H](CCCNC(=N)N)NC(=O)[C@H](Cc2ccc3ccccc3c2)NC(=O)[C@@H]2CCCCN2C(=O)[C@@H](CC(=O)O)NC(=O)CN(C)C(=O)[C@@H]2CCCN2C(=O)c2cc3cc(c2)C(=O)NC[C@H](NC(=O)[C@@H](C)NC1=O)C(=O)N[C@@H](Cc1ccccc1)C(=O)N[C@@H](Cc1ccc2ccccc2c1)C(=O)N[C@@H](CCCNC(=N)N)C(=O)N[C@@H](CCCNC(=N)N)C(=O)N[C@@H](CCCNC(=N)N)C(=O)N[C@@H](CCCNC(=N)N)C(=O)N[C@H](C(=O)N[C@@H](CCCCN)C(N)=O)CNC3=O [Peptide 18, bicyclo[Tm-(Pro-Sar-D-Asp-Pip-Nal-Arg-Val-D-Ala)-Dap-(Phe-Nal-Arg-Arg-Arg-Arg-Dap)]-Lys] (P[Sar][dD][Pip][2Nal]RV[dA][Dap]F[2Nal]RRRR[Dap]K-NH2; linker N-9-16 via Trimesoyl; C-terminus assumed)	
0.78 ± 0.05	C[C@@H]1NC(=O)[C@H](CCCNC(=N)N)NC(=O)[C@H](Cc2ccc3ccccc3c2)NC(=O)[C@@H]2CCCCN2C(=O)[C@@H]([C@H](C)O)NC(=O)[C@H](Cc2ccc(Cl)cc2)NC(=O)[C@@H](Cc2ccccc2)NC(=O)c2cc3cc(c2)C(=O)NC[C@H](NC(=O)[C@@H](Cc2ccccc2)NC1=O)C(=O)N[C@@H](Cc1ccccc1)C(=O)N[C@@H](Cc1ccc2ccccc2c1)C(=O)N[C@@H](CCCNC(=N)N)C(=O)N[C@@H](CCCNC(=N)N)C(=O)N[C@@H](CCCNC(=N)N)C(=O)N[C@@H](CCCNC(=N)N)C(=O)N[C@H](C(=O)N[C@@H](CCCCN)C(N)=O)CNC3=O [Peptide 30, bicyclo[Tm-(D-Phe-4-ClPhe-D-Thr-Pip-Nal-Arg-Ala-D-Phe)-Dap-(Phe-Nal-Arg-Arg-Arg-Arg-Dap)]-Lys] ([dF][Phe(4-Cl)][dT][Pip][2Nal]RA[dF][Dap]F[2Nal]RRRR[Dap]K-NH2; linker N-9-16 via Trimesoyl; C-terminus assumed)	
